Laboratory results taken from patent US8268818B2, “Inhibitors of C-MET and uses thereof” (Vertex Pharmaceuticals Incorporated, priority 2006, dated 2012).

Biological target: PI3Kγ (Homo sapiens, UniProt P48736)
Test: PI3K inhibition assay, Protocol B (33P-ATP, glass fiber filter plate)
Format: biochemical
Details: Protocol B; 100 μM ATP, 46 μM PI(4,5)P2 diC16, 16.6 nM PI3Kγ; average if more than one result; read-out: PI3Kγ enzyme inhibition Ki
Method: Compounds were screened for their ability to inhibit PI3Kγ using one of the assays below.
To each well of a 96 well polystyrene plate [Corning Costar Item No. 3795], 61 μL of Reaction Mix [55 mM HEPES pH 7.5, 11 mM MgCl2, 27 mM NaCl, 5.5 mM DTT, 0.11 mg/mL BSA, 51 μM phosphatidylinositol(4,5)bisphosphate diC16 (PI(4,5)P2; Avanti Polar Lipids, Cat. No. 840046P) and 18 nM PI3Kγ] was added. Separately, ten 2.5-fold serial dilutions of compounds of the invention were prepared in 100% DMSO with the last two wells reserved for no inhibitor controls (enzyme+no compound and no enzyme control+no compound). 1 μL it of compound or DMSO alone was added by 12-channel hand pipet and incubated for 10 minutes at room temperature (25° C.). To initiate the reaction, 5 μl of ATP Mix [49 mM HEPES pH 7.5 and 1340 ^33P-ATP was added and allowed to incubate for 30 min. at 25° C. Final concentrations of the reaction were 50 mM HEPES 7.5, 10 mM MgCl2, 25 mM NaCl, 5 mM DTT, 0.1 mg/mL BSA, 46 μM PI(4,5)P2, 16.6 nM PI3Kγ, and 100 μM ATP. Final inhibitor concentrations ranged from 10 μM to 1 nM.
After incubation, 60 μL of the reaction was quenched by transferring to 504 of 20% TCA/Water in each well of a 96 well glass fiber filter plate [Millipore Cat. No. MAFBN0B50]. The plate was dried by vacuum and then washed five times in a Bio-Tek Instruments ELX-405 Auto Plate Washer with 150 μL of 5% TCA/Water. 50 μL of scintillation fluid was added to each well and the plate was read immediately on a Perkin-Elmer TopCount™ NXT liquid scintillation counter.
Inhibition data was background subtracted (no enzyme control+no inhibitor control) and fit to the competitive tight binding Ki equation described by Morrison and Stone. [J. F. Morrison and S. R. Stone, Comments Mol. Cell. Biophys. 2 (1985) 347-368].

Chain of PI3Kγ (P48736 whole entry, species assumed): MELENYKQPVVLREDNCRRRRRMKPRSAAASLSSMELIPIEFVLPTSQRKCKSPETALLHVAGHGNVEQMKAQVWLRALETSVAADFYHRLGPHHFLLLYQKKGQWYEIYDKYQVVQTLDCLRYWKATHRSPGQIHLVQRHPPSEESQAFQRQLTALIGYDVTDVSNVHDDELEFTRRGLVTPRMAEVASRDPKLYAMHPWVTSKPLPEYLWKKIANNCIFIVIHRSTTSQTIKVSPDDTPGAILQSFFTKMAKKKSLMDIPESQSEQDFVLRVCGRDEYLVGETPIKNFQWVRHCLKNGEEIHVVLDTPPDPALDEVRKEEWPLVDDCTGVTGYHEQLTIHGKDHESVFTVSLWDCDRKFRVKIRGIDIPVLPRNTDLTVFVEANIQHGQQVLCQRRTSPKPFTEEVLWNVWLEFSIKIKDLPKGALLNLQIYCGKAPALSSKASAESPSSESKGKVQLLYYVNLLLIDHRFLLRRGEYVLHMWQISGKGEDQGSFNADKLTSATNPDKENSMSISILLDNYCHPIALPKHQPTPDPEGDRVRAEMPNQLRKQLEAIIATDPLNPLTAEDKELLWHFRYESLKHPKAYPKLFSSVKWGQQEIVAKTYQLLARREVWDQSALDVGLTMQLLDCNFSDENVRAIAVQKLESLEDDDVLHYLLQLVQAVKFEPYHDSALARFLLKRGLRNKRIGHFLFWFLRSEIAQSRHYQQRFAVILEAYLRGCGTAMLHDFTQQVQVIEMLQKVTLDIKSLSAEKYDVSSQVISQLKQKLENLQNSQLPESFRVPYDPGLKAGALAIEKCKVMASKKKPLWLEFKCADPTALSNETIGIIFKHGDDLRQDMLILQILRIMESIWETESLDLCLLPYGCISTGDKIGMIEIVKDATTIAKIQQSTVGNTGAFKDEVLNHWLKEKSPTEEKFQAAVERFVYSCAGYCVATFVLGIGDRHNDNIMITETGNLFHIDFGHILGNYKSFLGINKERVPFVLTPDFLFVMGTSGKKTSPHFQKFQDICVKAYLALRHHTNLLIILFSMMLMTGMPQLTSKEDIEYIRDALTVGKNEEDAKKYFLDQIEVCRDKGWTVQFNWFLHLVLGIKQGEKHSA

Row | Structure (SMILES) | Ki
1 | CC(=O)Nc1nc(C)c(-c2ccc(C(=O)N[C@@H](CO)c3ccccc3)o2)s1 [Compound 10, (R)-5-(2-acetamido-4-methylthiazol-5-yl)-N-(2-hydroxy-1-phenylethyl)furan-2-carboxamide] | 100 to 1000 nM
2 | CC(=O)NCCNS(=O)(=O)c1ccc(-c2sc(NC(C)=O)nc2C)o1 [Compound 27] | < 100 nM
3 | CC(=O)Nc1nc(C)c(-c2ccc(S(=O)(=O)N(C)C)o2)s1 [Compound 21] | < 100 nM
4 | CC(=O)Nc1nc(C)c(-c2ccc(C(=O)N(C)Cc3ccco3)o2)s1 [Compound 2] | 100 to 1000 nM
5 | CNS(=O)(=O)c1ccc(-c2sc(NC(C)=O)nc2C)o1 [Compound 20] | < 100 nM
6 | CC(=O)Nc1nc(C)c(-c2ccc(C(=O)N3CCN(Cc4ccccc4)CC3)o2)s1 [Compound 8] | 100 to 1000 nM
7 | CC(=O)Nc1nc(C)c(-c2ccc(C(=O)NCc3cc(Cl)cc(Cl)c3)o2)s1 [Compound 3] | 1000 to 5000 nM
8 | CC(=O)Nc1nc(C)c(-c2ccc(C(=O)N3CCCC3c3cccc(Br)c3)o2)s1 (stereo not drawn) [Compound 4] | 1000 to 5000 nM
9 | CC(=O)Nc1nc(C)c(-c2ccc(S(=O)(=O)N3CCN(C)CC3)o2)s1 [Compound 31] | < 100 nM
10 | CC(=O)Nc1nc(C)c(-c2ccc(C(=O)N3CCCC(O)C3)o2)s1 (stereo not drawn) [Compound 17] | 100 to 1000 nM
11 | CC(=O)Nc1nc(C)c(-c2ccc(C(=O)N3CCCCC3)o2)s1 [Compound 11] | 100 to 1000 nM
12 | CC(=O)Nc1nc(C)c(-c2ccc(S(=O)(=O)N3CC(C)OC(C)C3)o2)s1 (stereo not drawn) [Compound 32] | < 100 nM
13 | CC(=O)Nc1nc(C)c(-c2ccc(S(=O)(=O)NCC(C)C)o2)s1 [Compound 25] | < 100 nM
14 | CC(=O)Nc1nc(C)c(-c2ccc(C(=O)N3CCN(C)CC3)o2)s1 [Compound 7] | 1000 to 5000 nM
15 | CC(=O)Nc1nc(C)c(-c2ccc(S(=O)(=O)N(C)CCO)o2)s1 [Compound 24] | < 100 nM
16 | CC(=O)Nc1nc(C)c(-c2ccc(C(=O)NCCC#N)o2)s1 [Compound 9] | 100 to 1000 nM

More lines, now with the values ahead:

Row | Ki | Structure (SMILES)
17 | 100 to 1000 nM | CC(=O)Nc1nc(C)c(-c2ccc(S(=O)(=O)Nc3c(F)cccc3F)o2)s1 [Compound 70]
18 | < 100 nM | CC(=O)Nc1nc(C)c(-c2ccc(S(=O)(=O)N[C@@H](C)c3ccccc3)o2)s1 [Compound 49]
19 | < 100 nM | CC(=O)Nc1nc(C)c(-c2ccc(S(=O)(=O)NCc3cccc(C(F)(F)F)c3)o2)s1 [Compound 42]
20 | < 100 nM | CC(=O)Nc1nc(C)c(-c2ccc(S(=O)(=O)Nc3ccccc3F)o2)s1 [Compound 69]
21 | < 100 nM | COc1ccccc1CNS(=O)(=O)c1ccc(-c2sc(NC(C)=O)nc2C)o1 [Compound 58]
22 | < 100 nM | CC(=O)Nc1nc(C)c(-c2ccc(S(=O)(=O)N[C@H]3c4ccccc4C[C@H]3O)o2)s1 [Compound 74]
23 | < 100 nM | CC(=O)Nc1nc(C)c(-c2ccc(S(=O)(=O)NCC#N)o2)s1 [Compound 64]
24 | < 100 nM | CC(=O)Nc1nc(C)c(-c2ccc(S(=O)(=O)NCc3cccc(O)c3)o2)s1 [Compound 41]
25 | < 100 nM | COC(=O)C(NS(=O)(=O)c1ccc(-c2sc(NC(C)=O)nc2C)o1)c1ccccc1 (stereo not drawn) [Compound 62]
26 | < 100 nM | CC(=O)Nc1nc(C)c(-c2ccc(S(=O)(=O)N[C@@H]3c4ccccc4C[C@@H]3O)o2)s1 [Compound 73]
27 | < 100 nM | CC(=O)Nc1nc(C)c(-c2ccc(S(=O)(=O)N[C@@H](CO)c3ccccc3)o2)s1 [Compound 53]
28 | < 100 nM | CC(=O)Nc1nc(C)c(-c2ccc(S(=O)(=O)NCCF)o2)s1 [Compound 59]
29 | < 100 nM | CC(=O)Nc1nc(C)c(-c2ccc(S(=O)(=O)NCc3cc(F)cc(F)c3)o2)s1 [Compound 46]
30 | < 100 nM | CC(=O)Nc1nc(C)c(-c2ccc(S(=O)(=O)N[C@@H]3CCc4ccccc43)o2)s1 [Compound 57]
31 | < 100 nM | CC(=O)Nc1nc(C)c(-c2ccc(S(=O)(=O)NCc3cccc(I)c3)o2)s1 [Compound 39]
32 | < 100 nM | CC(=O)Nc1nc(C)c(-c2ccc(S(=O)(=O)N(C)Cc3ccccc3)o2)s1 [Compound 48]
33 | < 100 nM | CC(=O)Nc1nc(C)c(-c2ccc(S(=O)(=O)N[C@H](C)c3ccccc3)o2)s1 [Compound 51]
